In PubChem BioAssay (NCI) one finds TGI and GI50 data, which are given here for 14 compounds.

SMILES strings stand for the structures.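 Five concentrations, 48 hours, 96-well plates. GI50 marks 50% less growth. TGI: total growth inhibition.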

Test systems include A549 NSCLC; HCT-15 colon; HT29 colon; IGROV1 ovarian; SF-268 CNS; SN12C renal; SNB-75 CNS; SR leukemia; MCF7 breast; BT-549 breast.
Experiment in all cases: NCI-60 cell line screen, 48 h

For `O=C(N[C@@H]1C=CCC[C@@H]1c1ccccc1)OCc1ccccc1`, the TGI is greater than 69.6 µM in the test with A549 NSCLC; 38.3 µM in the test with HCT-15 colon; 53.1 µM with HT29 colon; 68.9 µM in the test with IGROV1 ovarian; 59 µM in the test with SF-268 CNS; 31.1 µM in the test on SN12C renal. In addition, the TGI was 60.6 µM in the test on SNB-75 CNS and 41.7 µM in the test on SR leukemia.
For `O=c1c2[nH]c3ccccc3c2nc2n1CCS2`, the GI50 with A549 NSCLC is greater than 100 µM; with HCT-15 colon it was 68.5 µM; in the test on HT29 colon, greater than 100000 nM; in the test on MCF7 breast, greater than 100000 nM; in the test with SF-268 CNS, greater than 100000 nM; in the test with SN12C renal, greater than 100000 nM. The GI50 in the test on SNB-75 CNS was 15.8 µM. The TGI with A549 NSCLC, in the test on HCT-15 colon, with HT29 colon, in the test on MCF7 breast, with SF-268 CNS and with SN12C renal was greater than 100 µM in each case. The compound also yielded a TGI in the test with SNB-75 CNS of 77.3 µM.
As for `Cc1ccc(/C=N/NS(=O)(=O)c2ccccc2)cc1`, the TGI with A549 NSCLC, in the test on HCT-15 colon, in the test on HT29 colon, with IGROV1 ovarian, in the test on SF-268 CNS and in the test on SN12C renal was greater than 100 µM throughout. The TGI with SNB-75 CNS and with SR leukemia was greater than 100 µM each time.
As for `COc1cc(-c2nc(-c3nnc(-c4ccc(F)c(Cl)c4)o3)c3ccccn23)cc(OC)c1OC`, the GI50 in the test on BT-549 breast was 1670 nM; with HCT-15 colon, 4.55 µM; in the test with IGROV1 ovarian it was 3.61 µM; in the test on SF-268 CNS, 2030 nM; in the test with SN12C renal, 2420 nM; in the test on SNB-75 CNS, 1.3 µM. Besides, the TGI in the test on BT-549 breast is 4.46 µM; in the test on HCT-15 colon, greater than 100 µM; with IGROV1 ovarian, greater than 100 µM; with SF-268 CNS, 5.48 µM; with SN12C renal, greater than 100 µM; in the test on SNB-75 CNS, 3.46 µM.
Take `NC1=NN(c2ccccc2)C(=O)C1/C(=N\NC(=O)c1cc2ccccc2cc1O)C(=O)Nc1nc([N+](=O)[O-])cs1` (stereo unspecified): the TGI is greater than 100 µM in the test on A549 NSCLC; greater than 74.1 µM in the test on HCT-15 colon; greater than 93 µM with HT29 colon; 94.4 µM in the test with IGROV1 ovarian; greater than 100 µM with SF-268 CNS; greater than 100 µM in the test with SN12C renal. In addition, the figures for the TGI in the test on SNB-75 CNS and in the test with SR leukemia were greater than 100 µM and 58.3 µM, respectively.
Turning to `CN(C)C(=S)/N=c1\ssc(=S)n1-c1ccccc1`, the TGI turned out to be 81.8 µM in the test on A549 NSCLC; 28.9 µM in the test with HCT-15 colon; 37.5 µM in the test on HT29 colon; 39.1 µM with IGROV1 ovarian; 32.8 µM in the test with SF-268 CNS; 28.8 µM with SN12C renal. In the test with SNB-75 CNS, the TGI was determined as 34.1 µM.
On to `O=C(O)c1c([N+](=O)[O-])cc(C(F)(F)F)cc1[N+](=O)[O-]`, for which the TGI with A549 NSCLC, in the test with HCT-15 colon, with HT29 colon, with IGROV1 ovarian, with SF-268 CNS and in the test with SN12C renal was greater than 100 µM each time. In the test on SR leukemia, the TGI was greater than 100 µM.
`COc1ccc2nc3ccccc3c(NCCCCCN(CCCl)CCCl)c2c1`: the TGI with A549 NSCLC turned out to be 0.675 µM; in the test on HT29 colon it was 2.84 µM; in the test on SF-268 CNS it was 0.329 µM; in the test on SNB-75 CNS it was 0.911 µM; in the test with SR leukemia it was 0.0101 µM.
As for `CC(C)(C)CC(C)(C)N(CSc1ccc(Cl)cc1)CSc1ccc(Cl)cc1`, the GI50 with A549 NSCLC is 0.452 µM; in the test with HCT-15 colon, 2.29 µM; with HT29 colon, 2830 nM; in the test on IGROV1 ovarian, 0.745 µM; with MCF7 breast, 2200 nM; in the test on SF-268 CNS, 803 nM. Also, the GI50 in the test with SN12C renal is 506 nM; with SNB-75 CNS it was 1.13 µM; in the test with SR leukemia it was 1.23 µM. The TGI in the test on A549 NSCLC was 7.7 µM; with HCT-15 colon, 11.5 µM; in the test with HT29 colon it was 9.18 µM; in the test with IGROV1 ovarian it was 2.7 µM; in the test on MCF7 breast, 10.2 µM; with SF-268 CNS, 4.39 µM. The TGI in the test with SN12C renal stood at 3.45 µM; in the test on SNB-75 CNS it was 5.68 µM; with SR leukemia, 5.51 µM.
For `O=[N+]([O-])c1cccc(/C=C/c2ccccn2)c1`, the GI50 with A549 NSCLC was 27.9 µM; in the test with HCT-15 colon, 4.84 µM; with IGROV1 ovarian it was 28 µM; in the test on MCF7 breast, 569 nM; with SF-268 CNS, 24700 nM; in the test on SN12C renal it was 38800 nM. Further, the GI50 in the test on SNB-75 CNS was 5.47 µM; with SR leukemia, 51.6 µM. Besides, the TGI in the test with A549 NSCLC, with HCT-15 colon, in the test on IGROV1 ovarian, in the test on MCF7 breast, in the test on SF-268 CNS and in the test with SN12C renal was greater than 100 µM each time. Besides, the TGI in the test on SNB-75 CNS is 75.4 µM; with SR leukemia it was greater than 100 µM.
Take `CCOc1ccccc1NC(=O)C(=O)C(C(=O)c1ccc2ccccc2c1)C1OC(=O)c2ccccc21` (stereo unspecified): the TGI was found to be 98.2 µM in the test with A549 NSCLC; 33.6 µM with HCT-15 colon; 76.4 µM in the test on HT29 colon; 35.2 µM with IGROV1 ovarian; 53.1 µM in the test with SF-268 CNS; 37.4 µM in the test on SN12C renal. The compound further returned a TGI with SNB-75 CNS of 31 µM.
`O=c1c2cc(Br)ccc2nc(-c2ccccc2)n1NCC1(O)OCC(O)C(O)C1O` (stereo unspecified): the TGI with A549 NSCLC, with HCT-15 colon, with HT29 colon, in the test on SF-268 CNS, in the test with SN12C renal and in the test with SNB-75 CNS was greater than 100 µM each time. This compound also returned a TGI in the test on SR leukemia greater than 100 µM.
As to `O=C(c1ccco1)c1ccccc1C(=O)c1ccco1`, the TGI with A549 NSCLC, in the test with HCT-15 colon, in the test with HT29 colon, in the test with IGROV1 ovarian, in the test with SF-268 CNS and with SN12C renal was greater than 100 µM each time. Also, the TGI in the test with SNB-75 CNS and with SR leukemia was greater than 100 µM in each case.
Turning to `CSc1c(S(C)=O)[nH]c2cc(Br)cc(Br)c12` (stereo unspecified), the TGI in the test on A549 NSCLC was 78.9 µM; in the test with HCT-15 colon, 70.8 µM; in the test on HT29 colon, 72.1 µM; in the test with IGROV1 ovarian, greater than 100 µM; in the test with SN12C renal, 33.9 µM; with SNB-75 CNS, 50.9 µM.
